The values below come from article PMC12037410, “Pharmacological targeting of BMAL1 modulates circadian and immune pathways” (Nature Chemical Biology, 2025).

The target of the assay is BMAL1 (Homo sapiens, UniProt O00327). More on the design: PASB domain (residues 338–449); Protein thermal shift (PTS) fragment screen on recombinant human BMAL1(PASB), shift of melting temperature. To be noted: dTmB; binder.
BMAL1, sequence (O00327 338-449): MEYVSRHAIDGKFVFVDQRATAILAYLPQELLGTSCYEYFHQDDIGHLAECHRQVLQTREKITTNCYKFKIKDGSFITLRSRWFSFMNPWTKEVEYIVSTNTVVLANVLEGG
In the case of `Clc1ccc(C(c2ccccc2)N2CCNCC2)cc1` (stereo not drawn) [Prestw-Frag-1741, Compound 476], the “Bmal1(PASB) dTmB” value is -4.68 °C. With `O=C(O)C(CO)c1ccccc1` (stereo not drawn) [Prestw-Frag-1686, Compound 284], the “Bmal1(PASB) dTmB” value was -1.23 °C. To `Oc1ccc(-c2ccc(F)cc2F)cc1` [Prestw-Frag-1237, Compound 467] belongs -0.75 °C; to `CN1CCN(c2cc(N)ncn2)CC1` [Prestw-Frag-3262, Compound 191], -0.17 °C. On to `Nc1ncn([C@@H]2O[C@H](CO)[C@@H](O)[C@H]2O)c(=O)n1` [Prestw-Frag-3302, Compound 121], for which the “Bmal1(PASB) dTmB” value was -0.02 °C. To `c1ccc2c(c1)CCNCC2` [Prestw-Frag-3750, Compound 343] belongs -0.06 °C. With `c1cnc2[nH]ncc2c1` [Prestw-Frag-1428, Compound 174] the figure was -0.31 °C; with `Cc1n[nH]c(C)c1N` [Prestw-Frag-3724, Compound 23], -1.19 °C. With `COC(=O)C(O)(c1ccccc1)C1CCCC1` (stereo not drawn) [Prestw-Frag-2484, Compound 442] the figure was -1.34 °C; with `NC1CCc2ccccc21` (stereo not drawn) [Prestw-Frag-3462, Compound 90], -0.81 °C; with `CCCOc1ccc(C(=O)OCC)cc1N` [Prestw-Frag-2724, Compound 416], -1.52 °C. Take `COc1cccc2c1CCCC2=O` [Prestw-Frag-1236, Compound 356]: the “Bmal1(PASB) dTmB” value is -1.28 °C. With `O=C1c2nccnc2C(O)N1c1ccc(Cl)cn1` (stereo not drawn) [Prestw-Frag-3046, Compound 93] the figure was -0.98 °C; with `NC(N)=NCc1cccc(I)c1` [Prestw-Frag-2111, Compound 312], -0.90 °C. To `CNC(=O)c1c(-c2ccccc2)noc1C` [Prestw-Frag-3690, Compound 210] belongs -0.42 °C; to `Cn1cc(CC(=O)O)c2ccccc21` [Prestw-Frag-3461, Compound 75], -0.44 °C; to `COc1cc2ccncc2cc1OC` [Prestw-Frag-1183, Compound 290], -1.26 °C.

Take `O=C(Cc1ccccc1)NO` [Prestw-Frag-1961, Compound 252]: the “Bmal1(PASB) dTmB” value was -0.30 °C. To `Cc1cc(=O)n(-c2ccc(C)c(C)c2)[nH]1` [Prestw-Frag-3221, Compound 342] belongs 1.18 °C; to `O=C(O)c1ccccc1Nc1cccc(Cl)c1` [Prestw-Frag-1319, Compound 28], -2.88 °C; to `Cc1nc2ccccc2[nH]1` [Prestw-Frag-2136, Compound 408], -0.37 °C. To `CC(=O)Nc1ccccn1` [Prestw-Frag-1782, Compound 170] belongs -0.28 °C; to `Nc1ncns1` [Prestw-Frag-3683, Compound 69], -0.32 °C; to `OCc1cc(O)cc(O)c1` [Prestw-Frag-1935, Compound 76], -0.85 °C. With `OCCc1ccc(Cl)cc1` [Prestw-Frag-3062, Compound 418] the figure was 0.02 °C; with `COc1cc2c(cc1OC)C(C)N(C)CC2` (stereo not drawn) [Prestw-Frag-1273, Compound 218], -0.29 °C. With `CN1CCN(c2ccc(N)cc2)CC1` [Prestw-Frag-3670, Compound 20], the “Bmal1(PASB) dTmB” value was determined as 0.65 °C.

Take `NC(=O)c1ccc2[nH]ccc2c1` [Prestw-Frag-3336, Compound 449]: the “Bmal1(PASB) dTmB” value is -0.81 °C. To `NCCCCc1ccccc1` [Prestw-Frag-1031, Compound 371] belongs -0.34 °C; to `O=C(O)c1ccc(Oc2ccccc2)cc1` [Prestw-Frag-1968, Compound 155], -0.89 °C; to `c1ccc2c(c1)CCCN2` [Prestw-Frag-3137, Compound 43], 0.06 °C. With `Nc1nc2ccc(C(=O)c3ccccc3)cc2[nH]1` [Prestw-Frag-1471, Compound 466] the figure was -1.29 °C. With `CCOC(=O)c1cccnc1` [Prestw-Frag-3382, Compound 96] the figure was -0.50 °C. As to `COC(=O)c1c[nH]c2ccccc12` [Prestw-Frag-2799, Compound 456], the “Bmal1(PASB) dTmB” value was -0.14 °C. With `NCc1ncc[nH]1` [Prestw-Frag-3689, Compound 15] the figure was -1.37 °C; with `CN(C)CCNC(=O)c1ccc(N)cc1` [Prestw-Frag-2031, Compound 430], -0.84 °C; with `O=C(O)c1cccnc1Nc1ccccc1` [Prestw-Frag-1191, Compound 63], 0.02 °C. For `OC(Cn1ccnc1)c1ccc(Cl)cc1Cl` (stereo not drawn) [Prestw-Frag-1182, Compound 411], the “Bmal1(PASB) dTmB” value is -0.85 °C.

Consider `O=c1[nH]snc1N1CCOCC1` [Prestw-Frag-2562, Compound 37], for which the “Bmal1(PASB) dTmB” value was -0.14 °C. To `Nc1nc2ccccc2o1` [Prestw-Frag-2256, Compound 309] belongs -0.33 °C; to `NC1=NCCN1` [Prestw-Frag-1268, Compound 246], -0.47 °C.

As to `COc1ccc(CC(=O)O)cc1` [Prestw-Frag-2960, Compound 158], the “Bmal1(PASB) dTmB” value stood at 0.16 °C. To `c1ccc(CNc2ccccn2)cc1` [Prestw-Frag-1475, Compound 204] belongs -1.06 °C; to `O=C(O)CCC(=O)c1ccccc1` [Prestw-Frag-1768, Compound 87], -0.11 °C; to `OCc1ccc(F)cc1F` [Prestw-Frag-3100, Compound 349], 0.05 °C. To `COC(=O)C(CO)c1ccccc1` (stereo not drawn) [Prestw-Frag-1406, Compound 266] belongs -0.21 °C. With `COc1ccc2cc[nH]c2c1` [Prestw-Frag-1372, Compound 392] the figure was 0.28 °C; with `Cc1c[nH]c(=O)[nH]c1=O` [Prestw-Frag-2017, Compound 255], -0.13 °C; with `CS(=O)(=O)c1ccc(N)cc1` [Prestw-Frag-1214, Compound 111], -0.40 °C.

For the compound `O=C(c1ccccc1)c1ccccc1` [Prestw-Frag-1860, Compound 423], the “Bmal1(PASB) dTmB” value was -0.99 °C. Consider `Cc1ccccc1-c1ccccc1CO` [Prestw-Frag-1923, Compound 451], for which the “Bmal1(PASB) dTmB” value was -1.24 °C. In the case of `Cc1cc(C(C)(C)C)cc(C)c1CC1=NCCN1` [Prestw-Frag-1575, Compound 425], the “Bmal1(PASB) dTmB” value is -1.26 °C. Consider `O=C1Nc2ccccc2Nc2ccccc21` [Prestw-Frag-1904, Compound 439], for which the “Bmal1(PASB) dTmB” value was 0.05 °C. With `CC(=O)N(CCC(=O)O)c1ccccc1` [Prestw-Frag-2487, Compound 222], the “Bmal1(PASB) dTmB” value was found to be 0.04 °C. As to `O=C1CNCCN1` [Prestw-Frag-3458, Compound 117], the “Bmal1(PASB) dTmB” value was -0.43 °C. With `CCN(CC)CCOC(=O)C1(c2ccccc2)CCCC1` [Prestw-Frag-2774, Compound 413] the figure was -1.85 °C. With `CC(=O)Nc1nncs1` [Prestw-Frag-1008, Compound 401] the figure was -0.09 °C; with `O=C(c1ccccc1)c1ccc(Br)cc1` [Prestw-Frag-2912, Compound 22], -1.94 °C. To `Cc1oncc1C(N)=O` [Prestw-Frag-1128, Compound 133] belongs -0.10 °C; to `CNCCc1ccc(OC)c(OC)c1` [Prestw-Frag-1446, Compound 257], -0.19 °C; to `Oc1cccc2c1CCCC2` [Prestw-Frag-1156, Compound 412], -1.05 °C. For the compound `O=C1COCCN1` [Prestw-Frag-3463, Compound 118], the “Bmal1(PASB) dTmB” value was -0.27 °C.

As for `COc1ccc(Cl)cc1C(N)=O` [Prestw-Frag-1775, Compound 316], the “Bmal1(PASB) dTmB” value was -0.78 °C. Turning to `c1cnc(N2CCNCC2)nc1` [Prestw-Frag-1398, Compound 399], the “Bmal1(PASB) dTmB” value is -0.21 °C. With `c1ccc(-n2ccnc2)cc1` [Prestw-Frag-3744, Compound 409], the “Bmal1(PASB) dTmB” value is -0.78 °C. To `NCCc1c[nH]c2ccc(O)cc12` [Prestw-Frag-1643, Compound 78] belongs -0.60 °C.

On to `O=C(O)/C=C/c1cnc[nH]1` [Prestw-Frag-3090, Compound 19], for which the “Bmal1(PASB) dTmB” value was -1.08 °C.

`Cc1cccc(Nc2ccccc2C(=O)O)c1` [Prestw-Frag-1320, Compound 17]: the “Bmal1(PASB) dTmB” value is -0.74 °C. With `COc1cc(N)ncn1` [Prestw-Frag-1154, Compound 185] the figure was -0.03 °C.

`OC(c1ccc(Cl)cc1)c1ccccn1` (stereo not drawn) [Prestw-Frag-1346, Compound 414]: the “Bmal1(PASB) dTmB” value was -1.29 °C.

Take `Nc1ccnn1-c1ccccc1` [Prestw-Frag-1648, Compound 208]: the “Bmal1(PASB) dTmB” value is -0.34 °C. With `COc1ccc2c(c1)CCCC2` [Prestw-Frag-3188, Compound 32] the figure was -0.52 °C. With `CCNC(=O)c1cccnc1` [Prestw-Frag-2794, Compound 205], the “Bmal1(PASB) dTmB” value came out at 0.17 °C.

In the case of `CN(C)C(=O)Oc1ccccc1` [Prestw-Frag-1540, Compound 384], the “Bmal1(PASB) dTmB” value was -0.26 °C. `O=C(c1ccccc1)N1CCNCC1` [Prestw-Frag-3677, Compound 184]: the “Bmal1(PASB) dTmB” value is -0.65 °C. In the case of `O=c1ccc2ccccc2o1` [Prestw-Frag-1000, Compound 307], the “Bmal1(PASB) dTmB” value was -0.26 °C. `NC(=O)C(c1ccccc1)c1ccccc1` [Prestw-Frag-2366, Compound 415]: the “Bmal1(PASB) dTmB” value is -0.76 °C. Take `Cn1c(=O)[nH]c2nc[nH]c2c1=O` [Prestw-Frag-1138, Compound 38]: the “Bmal1(PASB) dTmB” value was -0.59 °C.
